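Following 48 hours of exposure in 96-well plates, responses at five concentrations were used to interpolate endpoints linearly. Here, GI50 denotes the concentration required for 50% inhibition of growth. Definition used: TGI = concentration required for complete inhibition of growth.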
Key:
Test in all cases: NCI anticancer screen, dose series, 48 h
[1] = tested on: LOX IMVI melanoma
[2] = tested on: SK-MEL-5 melanoma
[3] = tested on: HCT-116 colon
[4] = tested on: SF-539 CNS
[5] = tested on: PC-3 prostate
[6] = tested on: NCI-H522 lung
[7] = tested on: NCI-H460 lung
[8] = tested on: RPMI-8226 leukemia
[9] = tested on: COLO 205 colon
[10] = tested on: SNB-19 CNS
[11] = tested on: M14 melanoma
[12] = tested on: HS 578T breast
[13] = tested on: OVCAR-5 ovarian
[14] = tested on: OVCAR-8 ovarian
[15] = tested on: UO-31 renal
[16] = tested on: HL-60(TB) leukemia
[17] = tested on: SF-268 CNS
[18] = tested on: HOP-92 NSCLC
[19] = tested on: SK-MEL-2 melanoma
[20] = tested on: DU-145 prostate
[21] = tested on: MDA-MB-231 breast
[22] = tested on: HCT-15 colon
[23] = tested on: NCI-H23 lung
[24] = tested on: CCRF-CEM leukemia
[25] = tested on: SW-620 colon
[26] = tested on: MOLT-4 leukemia
[27] = tested on: MCF7 breast
[28] = tested on: SF-295 CNS
[29] = tested on: SNB-75 CNS
[30] = tested on: UACC-62 melanoma
[31] = tested on: ACHN renal
[32] = tested on: MDA-MB-435
[33] = tested on: A498 renal
[34] = tested on: SR leukemia
[35] = tested on: U251 CNS
[36] = tested on: NCI/ADR-RES ovarian
[37] = tested on: SK-OV-3 ovarian
[38] = tested on: MALME-3M melanoma
[39] = tested on: SN12C renal
[40] = tested on: EKVX NSCLC
[41] = tested on: NCI-H226 lung
[42] = tested on: IGROV1 ovarian
[43] = tested on: A549 NSCLC
[44] = tested on: SK-MEL-28 melanoma
[45] = tested on: HCC-2998 colon
[46] = tested on: K-562 leukemia
[47] = tested on: OVCAR-4 ovarian
[48] = tested on: TK-10 renal
[49] = tested on: UACC-257 melanoma
[50] = tested on: HOP-62 NSCLC
[51] = tested on: 786-0 renal
[52] = tested on: T-47D breast
[53] = tested on: RXF 393 renal
[54] = tested on: KM12 colon
[55] = tested on: HT29 colon
[56] = tested on: CAKI-1 renal

SMILES: C=CCn1c(SCC(=O)Nc2ccc(C(=O)/C=C/c3cc(OC)c(OC)c(OC)c3)cc2)nnc1-c1c[nH]c2ccccc12
- GI50 [1]: 0.904 µM
- TGI [1]: 2.34 µM
- GI50 [2]: 3.52 µM
- TGI [2]: 13.5 µM
- GI50 [3]: 0.376 µM
- TGI [3]: 1.53 µM
- GI50 [4]: 1.81 µM
- TGI [4]: 3.64 µM
- GI50 [5]: 3.09 µM
- TGI [5]: > 100 µM
- GI50 [6]: 2.15 µM
- TGI [6]: 4.99 µM
- GI50 [7]: 3.1 µM
- TGI [7]: 10.1 µM
- GI50 [8]: 0.288 µM
- TGI [8]: 1.26 µM
- GI50 [9]: 1.87 µM
- TGI [9]: 4.07 µM
- GI50 [10]: 3 µM
- TGI [10]: 13.3 µM
- GI50 [11]: 2.66 µM
- TGI [11]: 8.39 µM
- GI50 [12]: 4.35 µM
- TGI [12]: > 100 µM
- GI50 [13]: 2.06 µM
- TGI [13]: 4.34 µM
- GI50 [14]: 3.44 µM
- TGI [14]: > 100 µM
- GI50 [15]: 1.63 µM
- TGI [15]: 4.77 µM
- GI50 [16]: 2.18 µM
- TGI [16]: 8.04 µM
- GI50 [17]: 3.43 µM
- TGI [17]: 18.6 µM
- GI50 [18]: 4.24 µM
- TGI [18]: > 100 µM
- GI50 [19]: 2.25 µM
- TGI [19]: 6.38 µM
- GI50 [20]: 3.19 µM
- TGI [20]: 10.8 µM
- GI50 [21]: 5.58 µM
- TGI [21]: > 100 µM
- GI50 [22]: 2.08 µM
- TGI [22]: 11.1 µM
- GI50 [23]: 1.85 µM
- TGI [23]: 4.16 µM
- GI50 [24]: 2.24 µM
- TGI [24]: > 100 µM
- GI50 [25]: 2.08 µM
- TGI [25]: 5.85 µM
- GI50 [26]: 2.7 µM
- TGI [26]: > 100 µM
- GI50 [27]: 0.361 µM
- TGI [27]: 1.86 µM
- GI50 [28]: 3.14 µM
- TGI [28]: 11.6 µM
- GI50 [29]: 3.5 µM
- TGI [29]: 17.3 µM
- GI50 [30]: 2.55 µM
- TGI [30]: 10.4 µM
- GI50 [31]: 1.97 µM
- TGI [31]: 4.33 µM
- GI50 [32]: 1.82 µM
- TGI [32]: 4.76 µM
- GI50 [33]: 1.5 µM
- TGI [33]: 2.92 µM
- GI50 [34]: 0.522 µM
- TGI [34]: > 100 µM
- GI50 [35]: 1.61 µM
- TGI [35]: 3.64 µM
- GI50 [36]: > 100 µM
- TGI [36]: > 100 µM
- GI50 [37]: 4.46 µM
- TGI [37]: 19.3 µM
- GI50 [38]: 3.2 µM
- TGI [38]: 24.9 µM
- GI50 [39]: 3.71 µM
- TGI [39]: > 100 µM
- GI50 [40]: 3.69 µM
- TGI [40]: > 100 µM
- GI50 [41]: 2.56 µM
- TGI [41]: 56.8 µM
- GI50 [42]: 1.6 µM
- TGI [42]: 4.06 µM
- GI50 [43]: 3.04 µM
- TGI [43]: 12.3 µM
- GI50 [44]: 2.32 µM
- TGI [44]: 5.61 µM
- GI50 [45]: 1.65 µM
- TGI [45]: 3.09 µM
- GI50 [46]: 0.991 µM
- TGI [46]: > 100 µM
- GI50 [47]: 2.79 µM
- TGI [47]: 8.91 µM
- GI50 [48]: 5.8 µM
- TGI [48]: 34.3 µM
- GI50 [49]: 3.5 µM
- TGI [49]: 19.8 µM
- GI50 [50]: 2.06 µM
- TGI [50]: 5.22 µM
- GI50 [51]: 1.84 µM
- TGI [51]: 3.43 µM
- GI50 [52]: 2.42 µM
- TGI [52]: > 100 µM
- GI50 [53]: 1.53 µM
- TGI [53]: 3.34 µM
- GI50 [54]: 1.48 µM
- TGI [54]: 2.98 µM
- GI50 [55]: 1.7 µM
- TGI [55]: 3.3 µM
- GI50 [56]: 3.35 µM
- TGI [56]: > 100 µM
